# Where a name gives a salt, the structure may show the parent alone.
# What was measured:
# [1] = target: T1, rat P2X3 receptor (Rattus norvegicus, UniProt P49654); assay: cell-based
# T1 sequence (P49654 1-397): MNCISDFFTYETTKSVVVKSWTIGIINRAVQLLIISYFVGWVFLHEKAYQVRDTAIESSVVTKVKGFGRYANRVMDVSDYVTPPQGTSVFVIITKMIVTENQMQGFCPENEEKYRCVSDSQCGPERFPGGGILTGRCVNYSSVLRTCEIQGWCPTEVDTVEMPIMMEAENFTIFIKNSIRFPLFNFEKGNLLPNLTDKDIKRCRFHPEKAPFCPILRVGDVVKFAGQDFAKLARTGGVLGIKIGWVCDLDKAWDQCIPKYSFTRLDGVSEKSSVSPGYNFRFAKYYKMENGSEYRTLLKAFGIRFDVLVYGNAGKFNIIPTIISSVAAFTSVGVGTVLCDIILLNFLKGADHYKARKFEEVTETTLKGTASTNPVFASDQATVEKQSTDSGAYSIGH
# Method: P2X3/P2X2/3 FLIPR (Fluorometric Imaging Plate Reader) Assay
# CHO-K1 cells were transfected with cloned rat P2X3 or human P2X2/3 receptor subunits and passaged in flasks. 18-24 hours before the FLIPR experiment, cells were released from their flasks, centrifuged, and resuspended in nutrient medium at 2.5×10^5 cells/ml. The cells were aliquoted into black-walled 96-well plates at a density of 50,000 cells/well and incubated overnight in 5% CO2 at 37° C. On the day of the experiment, cells were washed in FLIPR buffer (calcium- and magnesium-free Hank's balanced salt solution, 10 mM HEPES, 2 mM CaCl2, 2.5 mM probenecid; FB). […]
# Test compounds (dissolved in DMSO at 10 mM and serially diluted with FB) or vehicle were added to each well (25 μl of a 4× solution) and allowed to equilibrate for 20 minutes at room temperature. The plates were then placed in the FLIPR and a baseline fluorescence measurement (excitation at 488 nm and emission at 510-570 nm) was obtained for 10 seconds before a 100 μl/well agonist or vehicle addition. […] Fluorescence was measured for an additional 2 minutes at 1 second intervals after agonist addition. A final addition of ionomycin (5 μM, final concentration) was made to each well of the FLIPR test plate to establish cell viability and maximum fluorescence of dye-bound cytosolic calcium. […]
SMILES,melting point,IC50 [1]
"COc1cc(C(C)C)c(Oc2cnc(N[C@H](C)CO)nc2N)cc1Cl (as salt: hydrochloride) [Compound 120, 2-[4-Amino-5-(5-chloro-2-isopropyl-4-methoxy-phenoxy)-pyrimidin-2-ylamino]-(R)-propan-1-ol]",111.4 to 116.9 °C,
"Cc1cn(C)c2cc(C(F)(F)F)c(Oc3cnc(N)nc3N)cc12 (as salt: hydrochloride) [Example 63, 5-(1,3-Dimethyl-6-trifluoromethyl-1H-indol-5-yloxy)-pyrimidine-2,4-diamine]",256 °C,
"Cc1nc2c(C)cc(Oc3cnc(N)nc3N)c(C(C)C)c2o1 (as salt: hydrochloride) [Example 66, 5-(7-Isopropyl-2,4-dimethyl-benzooxazol-6-yloxy)-pyrimidine-2,4-diamine]",> 300 °C,
"COc1cc(C(C)C)c(Oc2cnc(N)nc2N)cc1-c1ncon1 (as salt: trifluoroacetic acid salt) [Example 57, 5-(2-Isopropyl-4-methoxy-5-[1,2,4]oxadiazol-3-yl-phenoxy)-pyrimidine-2,4-diamine]",135 to 138.5 °C,
"CNC(=O)OC[C@@H](C)Nc1ncc(Oc2cc(Cl)c(OC)cc2C(C)C)c(N)n1 (stereo in doubt) [Example 7, Methyl-carbamic acid 2-[4-amino-5-(5-chloro-2-isopropyl-4-methoxy-phenoxy)-pyrimidin-2-ylamino]-propyl ester]",63.5 to 69.4 °C,
"CC(C)c1cc(O)c(I)cc1Oc1cnc(N)nc1N [4-(2,4-Diamino-pyrimidin-5-yloxy)-2-iodo-5-isopropyl-phenol]",,~5.01 nM
"COc1cc(C)c(Cc2cnc(N)nc2N)cc1OC [5-(4,5-Dimethoxy-2-methyl-benzyl)-pyrimidine-2,4-diamine]",,> 10000 nM
"CC(C)c1cc2c(cc1Oc1cnc(N)nc1N)OCCN2C [Example 58, 5-(6-Isopropyl-4-methyl-3,4-dihydro-2H-benzo[1,4]oxazin-7-yloxy)-pyrimidine-2,4-diamine]",167.3 to 170.1 °C,
"COc1cc(C(C)C)c(Oc2cnc(N)nc2N)cc1-c1ccco1 [Example 59, 5-(5-Furan-2-yl-2-isopropyl-4-methoxy-phenoxy)-pyrimidine-2,4-diamine]",253.7 to 254.6 °C,
"COc1cc(C(C)C)c(Oc2cnc(N)nc2N)cc1N1CCN(S(C)(=O)=O)CC1 [Example 61, 5-[2-Isopropyl-5-(4-methanesulfonyl-piperazin-1-yl)-4-methoxy-phenoxy]-pyrimidine-2,4-diamine]",115 to 117 °C,
"CCc1c(Oc2cnc(N)nc2N)cc(C)c2sccc12 [Example 62, 5-(4-Ethyl-7-methyl-benzo[b]thiophen-5-yloxy)-pyrimidine-2,4-diamine]",181 °C,
"Cc1c(C(=O)O)[nH]c2cc(Oc3cnc(N)nc3N)c(C(C)C)cc12 [Example 64, 6-(2,4-Diamino-pyrimidin-5-yloxy)-5-isopropyl-3-methyl-1H-indole-2-carboxylic acid]",> 300 °C,

# Reference: US8846705B2, “Diaminopyrimidines as P2X3 and P2X2/3 antagonists” (Roche Palo Alto LLC, priority 2004, dated 2014)
